{
  "source": "ChEMBL document CHEMBL3885881",
  "about": "“DrugMatrix”",
  "species": "Rattus norvegicus",
  "assay": "DrugMatrix - Regimen: Daily Repeat",
  "assay_type": "toxicity, organism-based, Sprague-Dawley",
  "design": "regimen Daily Repeat, gender Male, age 6-8 weeks",
  "details": "in vivo, po, 0 mg/kg, route oral GAVAGE, dose level Control, vehicle 100 % WATER",
  "key": {"[1]": {"details": "72 h, tissue Plasma, time 3 day"}, "[2]": {"details": "120 h, tissue Blood, time 5 day"}, "[3]": {"details": "120 h, tissue Plasma, time 5 day"}},
  "data": [
    {"substance": "CADMIUM ACETATE", "values": [
      {"measurement": "ABSOLUTE BASOPHIL", "setting": "72 h, tissue Blood, time 3 day", "value": 0, "unit": "CELLS/uL"},
      {"measurement": "ABSOLUTE EOSINOPHIL", "setting": "72 h, tissue Blood, time 3 day", "value": 0, "unit": "CELLS/uL"},
      {"measurement": "ABSOLUTE LYMPHOCYTE", "setting": "72 h, tissue Blood, time 3 day", "value": 10386.33, "unit": "CELLS/uL"},
      {"measurement": "ABSOLUTE MONOCYTE", "setting": "72 h, tissue Blood, time 3 day", "value": 88.5, "unit": "CELLS/uL"},
      {"measurement": "ABSOLUTE SEGMENTED NEUTROPHIL", "setting": "72 h, tissue Blood, time 3 day", "value": 1008.5, "unit": "CELLS/uL"},
      {"measurement": "BASOPHIL", "setting": "72 h, tissue Blood, time 3 day", "value": 0, "unit": "%"},
      {"measurement": "EOSINOPHIL", "setting": "72 h, tissue Blood, time 3 day", "value": 0, "unit": "%"},
      {"measurement": "ERYTHROCYTE COUNT", "setting": "72 h, tissue Blood, time 3 day", "value": 5.16, "unit": "x10E6/uL"},
      {"measurement": "HEMATOCRIT", "setting": "72 h, tissue Blood, time 3 day", "value": 32.43, "unit": "%"},
      {"measurement": "HEMOGLOBIN", "setting": "72 h, tissue Blood, time 3 day", "value": 12.98, "unit": "G/DL"},
      {"measurement": "LEUKOCYTE COUNT", "setting": "72 h, tissue Blood, time 3 day", "value": 11.48, "unit": "x10E3/uL"},
      {"measurement": "LYMPHOCYTE", "setting": "72 h, tissue Blood, time 3 day", "value": 92.33, "unit": "%"},
      {"measurement": "MEAN CORPUSCULAR HEMOGLOBIN", "setting": "72 h, tissue Blood, time 3 day", "value": 25.23, "unit": "pg"},
      {"measurement": "MEAN CORPUSCULAR HEMOGLOBIN CONCENTRATION", "setting": "72 h, tissue Blood, time 3 day", "value": 40.08, "unit": "G/DL"},
      {"measurement": "MEAN CORPUSCULAR VOLUME", "setting": "72 h, tissue Blood, time 3 day", "value": 62.95, "unit": "fL"},
      {"measurement": "MONOCYTE", "setting": "72 h, tissue Blood, time 3 day", "value": 0.67, "unit": "%"},
      {"measurement": "NEUTROPHIL", "setting": "72 h, tissue Blood, time 3 day", "value": 7, "unit": "%"},
      {"measurement": "NUCLEATED RED BLOOD CELLS", "setting": "72 h, tissue Blood, time 3 day", "value": "0 /100WBC"},
      {"measurement": "PLATELET COUNT", "setting": "72 h, tissue Blood, time 3 day", "value": 1016.67, "unit": "x10E3/uL"},
      {"measurement": "ALANINE AMINOTRANSFERASE", "setting": "[1]", "value": 62.17, "unit": "u/L"},
      {"measurement": "ALBUMIN", "setting": "[1]", "value": 3.95, "unit": "G/DL"},
      {"measurement": "ALKALINE PHOSPHATASE", "setting": "[1]", "value": 363.5, "unit": "u/L"},
      {"measurement": "ASPARTATE AMINOTRANSFERASE", "setting": "[1]", "value": 118, "unit": "u/L"},
      {"measurement": "BLOOD UREA NITROGEN", "setting": "[1]", "value": 14.5, "unit": "mg/dL"},
      {"measurement": "CARBON DIOXIDE", "setting": "[1]", "value": 22.83, "unit": "mmol/L"},
      {"measurement": "CHOLESTEROL", "setting": "[1]", "value": 66, "unit": "mg/dL"},
      {"measurement": "CREATINE PHOSPHOKINASE", "setting": "[1]", "value": 1308.83, "unit": "u/L"},
      {"measurement": "CREATININE", "setting": "[1]", "value": 0.22, "unit": "mg/dL"},
      {"measurement": "GLUCOSE", "setting": "[1]", "value": 187.5, "unit": "mg/dL"},
      {"measurement": "LACTATE DEHYDROGENASE", "setting": "[1]", "value": 380.17, "unit": "u/L"},
      {"measurement": "LIPASE", "setting": "[1]", "value": 16.17, "unit": "u/L"},
      {"measurement": "PHOSPHORUS", "setting": "[1]", "value": 14.27, "unit": "mg/dL"},
      {"measurement": "POTASSIUM", "setting": "[1]", "value": 6.8, "unit": "MEQ/L"},
      {"measurement": "TOTAL BILIRUBIN", "setting": "[1]", "value": 0.2, "unit": "mg/dL"},
      {"measurement": "TOTAL PROTEIN", "setting": "[1]", "value": 5.68, "unit": "G/DL"},
      {"measurement": "URIC ACID", "setting": "[1]", "value": 2.87, "unit": "mg/dL"},
      {"measurement": "ABSOLUTE BASOPHIL", "setting": "[2]", "value": 0, "unit": "CELLS/uL"},
      {"measurement": "ABSOLUTE EOSINOPHIL", "setting": "[2]", "value": 80, "unit": "CELLS/uL"},
      {"measurement": "ABSOLUTE LYMPHOCYTE", "setting": "[2]", "value": 13301.33, "unit": "CELLS/uL"},
      {"measurement": "ABSOLUTE MONOCYTE", "setting": "[2]", "value": 180.83, "unit": "CELLS/uL"},
      {"measurement": "ABSOLUTE SEGMENTED NEUTROPHIL", "setting": "[2]", "value": 1187.83, "unit": "CELLS/uL"},
      {"measurement": "BASOPHIL", "setting": "[2]", "value": 0, "unit": "%"},
      {"measurement": "EOSINOPHIL", "setting": "[2]", "value": 0.5, "unit": "%"},
      {"measurement": "ERYTHROCYTE COUNT", "setting": "[2]", "value": 5.54, "unit": "x10E6/uL"},
      {"measurement": "HEMATOCRIT", "setting": "[2]", "value": 35.65, "unit": "%"},
      {"measurement": "HEMOGLOBIN", "setting": "[2]", "value": 14.22, "unit": "G/DL"},
      {"measurement": "LEUKOCYTE COUNT", "setting": "[2]", "value": 14.75, "unit": "x10E3/uL"},
      {"measurement": "LYMPHOCYTE", "setting": "[2]", "value": 90.67, "unit": "%"},
      {"measurement": "MEAN CORPUSCULAR HEMOGLOBIN", "setting": "[2]", "value": 25.65, "unit": "pg"},
      {"measurement": "MEAN CORPUSCULAR HEMOGLOBIN CONCENTRATION", "setting": "[2]", "value": 39.88, "unit": "G/DL"},
      {"measurement": "MONOCYTE", "setting": "[2]", "value": 1, "unit": "%"},
      {"measurement": "NEUTROPHIL", "setting": "[2]", "value": 7.83, "unit": "%"},
      {"measurement": "NUCLEATED RED BLOOD CELLS", "setting": "[2]", "value": "0.17 /100WBC"},
      {"measurement": "PLATELET COUNT", "setting": "[2]", "value": 1285.33, "unit": "x10E3/uL"},
      {"measurement": "ALANINE AMINOTRANSFERASE", "setting": "[3]", "value": 51.67, "unit": "u/L"},
      {"measurement": "ALKALINE PHOSPHATASE", "setting": "[3]", "value": 391.5, "unit": "u/L"},
      {"measurement": "ASPARTATE AMINOTRANSFERASE", "setting": "[3]", "value": 99.5, "unit": "u/L"},
      {"measurement": "BLOOD UREA NITROGEN", "setting": "[3]", "value": 15.5, "unit": "mg/dL"},
      {"measurement": "CARBON DIOXIDE", "setting": "[3]", "value": 28.33, "unit": "mmol/L"},
      {"measurement": "CHOLESTEROL", "setting": "[3]", "value": 67.83, "unit": "mg/dL"},
      {"measurement": "CREATINE PHOSPHOKINASE", "setting": "[3]", "value": 771.33, "unit": "u/L"},
      {"measurement": "CREATININE", "setting": "[3]", "value": 0.23, "unit": "mg/dL"},
      {"measurement": "GLUCOSE", "setting": "[3]", "value": 156.5, "unit": "mg/dL"},
      {"measurement": "LACTATE DEHYDROGENASE", "setting": "[3]", "value": 544.33, "unit": "u/L"},
      {"measurement": "LIPASE", "setting": "[3]", "value": 10.17, "unit": "u/L"},
      {"measurement": "PHOSPHORUS", "setting": "[3]", "value": 12.03, "unit": "mg/dL"},
      {"measurement": "POTASSIUM", "setting": "[3]", "value": 6.81, "unit": "MEQ/L"},
      {"measurement": "TOTAL BILIRUBIN", "setting": "[3]", "value": 0.22, "unit": "mg/dL"},
      {"measurement": "TOTAL PROTEIN", "setting": "[3]", "value": 6, "unit": "G/DL"},
      {"measurement": "URIC ACID", "setting": "[3]", "value": 2.18, "unit": "mg/dL"}
    ]}
  ]
}
